# Experimental data published in PubChem BioAssay AID328 (DTP/NCI, 2004).
# Toxic doses and inconclusive results are not listed.
# Tested on: BDF1 mice, P388 leukemia ip, median survival T/C
# Assay: NCI In Vivo Anticancer Drug Screen. Data for tumor model P388 Leukemia (intraperitoneal) in B6D2F1 (BDF1) mice
# Details: endpoint: median survival time, higher = longer survival
# How it was run: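 Each value expresses how treatment altered survival: treated-mouse outcome over vehicle-mouse outcome, both groups bearing the transplanted tumour.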
# [1] = dose: 50.0 mg/kg/injection, schedule: Q01DX009 (ip), vehicle: saline with Tween-80
# [2] = dose: 100.0 mg/kg/injection, schedule: Q01DX009 (ip), vehicle: saline with Tween-80
# [3] = dose: 200.0 mg/kg/injection, schedule: Q01DX009 (ip), vehicle: saline with Tween-80
# [4] = dose: 100.0 mg/kg/injection, schedule: Q01DX009 (ip), vehicle: Klucel (hydroxypropylcellulose) (HPC)
smiles,measurement,setting,value
CCOC(c1ccccc1)(c1ccccc1)c1ccccc1,T/C,"dose: 100.0 mg/kg/injection, schedule: Q04DX003 (ip), vehicle: other",105 % of control
same,T/C,"dose: 200.0 mg/kg/injection, schedule: Q04DX003 (ip), vehicle: other",105 % of control
same,T/C,"dose: 400.0 mg/kg/injection, schedule: Q04DX003 (ip), vehicle: other",110 % of control
O=C1OC(N2Cc3ccccc3C2=O)c2ccccc21 (centres undefined),T/C,[1],100 % of control
same,T/C,[2],100 % of control
same,T/C,[3],94 % of control
Oc1ccc2ccccc2c1C1=NNc2n[nH]c(=S)n2N1,T/C,"dose: 12.5 mg/kg/injection, schedule: Q04DX003 (ip), vehicle: Klucel (hydroxypropylcellulose) (HPC)",104 % of control
same,T/C,"dose: 25.0 mg/kg/injection, schedule: Q04DX003 (ip), vehicle: Klucel (hydroxypropylcellulose) (HPC)",108 % of control
same,T/C,"dose: 50.0 mg/kg/injection, schedule: Q04DX003 (ip), vehicle: Klucel (hydroxypropylcellulose) (HPC)",104 % of control
Cc1ccc(C(O)(c2ccccc2)C2C(c3ccccc3)N2C2CCCCC2)cc1 (centres undefined),T/C,"dose: 50.0 mg/kg/injection, schedule: Q01DX001 (ip), vehicle: saline sonified",96 % of control
same,T/C,"dose: 100.0 mg/kg/injection, schedule: Q01DX001 (ip), vehicle: saline sonified",96 % of control
same,T/C,"dose: 200.0 mg/kg/injection, schedule: Q01DX001 (ip), vehicle: saline sonified",92 % of control
O=C1OC(=Nc2cccc([N+](=O)[O-])c2)c2ccccc21,T/C,[1],150 % of control
same,T/C,[3],97 % of control
O=C1C=C(c2ccccc2)C(O)(c2ccccc2)C1 (centres undefined),T/C,[2],102 % of control
same,T/C,[3],88 % of control
CN1CCN(c2nc3cccnc3s2)CC1,T/C,"dose: 100.0 mg/kg/injection, schedule: Q04DX003 (ip), vehicle: saline",93 % of control
BrCC[N+]12CC[N+](CCBr)(CC1)C2,T/C,"dose: 12.5 mg/kg/injection, schedule: Q01DX009 (ip), vehicle: saline with Tween-80",112 % of control
same,T/C,"dose: 25.0 mg/kg/injection, schedule: Q01DX009 (ip), vehicle: saline with Tween-80",105 % of control
same,T/C,"dose: 25.0 mg/kg/injection, schedule: Q04DX003 (ip), vehicle: water",110 % of control
same,T/C,"dose: 50.0 mg/kg/injection, schedule: Q04DX003 (ip), vehicle: water",116 % of control
same,T/C,"dose: 400.0 mg/kg/injection, schedule: Q04DX003 (ip), vehicle: water",172 % of control
CCN(CC)Cc1cc(Nc2c3ccccc3nc3cc(Cl)ccc23)ccc1O,T/C,"dose: 12.5 mg/kg/injection, schedule: Q01DX009 (ip), vehicle: saline",100 % of control
same,T/C,"dose: 12.5 mg/kg/injection, schedule: Q04DX003 (ip), vehicle: saline sonified",104 % of control
same,T/C,"dose: 25.0 mg/kg/injection, schedule: Q01DX009 (ip), vehicle: saline",100 % of control
same,T/C,"dose: 25.0 mg/kg/injection, schedule: Q04DX003 (ip), vehicle: saline sonified",100 % of control
same,T/C,"dose: 50.0 mg/kg/injection, schedule: Q04DX003 (ip), vehicle: saline sonified",104 % of control
CC(C)OC(CCC#N)c1ccccc1 (centres undefined),T/C,[4],100 % of control
same,T/C,"dose: 100.0 mg/kg/injection, schedule: Q04DX003 (ip), vehicle: Klucel (hydroxypropylcellulose) (HPC)",95 % of control
same,T/C,"dose: 200.0 mg/kg/injection, schedule: Q01DX009 (ip), vehicle: Klucel (hydroxypropylcellulose) (HPC)",100 % of control
same,T/C,"dose: 200.0 mg/kg/injection, schedule: Q04DX003 (ip), vehicle: Klucel (hydroxypropylcellulose) (HPC)",104 % of control
same,T/C,"dose: 400.0 mg/kg/injection, schedule: Q04DX003 (ip), vehicle: Klucel (hydroxypropylcellulose) (HPC)",109 % of control
Cc1ccc(S(=O)(=O)N/N=C/C(Br)=C(/Br)C(=O)O)cc1,T/C,"dose: 6.25 mg/kg/injection, schedule: Q01DX009 (ip), vehicle: Klucel (hydroxypropylcellulose) (HPC)",119 % of control
same,T/C,"dose: 12.5 mg/kg/injection, schedule: Q01DX009 (ip), vehicle: Klucel (hydroxypropylcellulose) (HPC)",124 % of control
same,T/C,"dose: 50.0 mg/kg/injection, schedule: Q01DX009 (ip), vehicle: Klucel (hydroxypropylcellulose) (HPC)",155 % of control
same,T/C,[4],153 % of control
O=C1OC(c2ccc(O)cc2)(c2ccc(Oc3ccccc3)cc2)c2ccccc21 (centres undefined),T/C,[2],97 % of control
same,T/C,[3],105 % of control
same,T/C,"dose: 400.0 mg/kg/injection, schedule: Q01DX009 (ip), vehicle: saline with Tween-80",99 % of control
CCCCc1cc(O)c2c(c1O)C(=O)c1ccccc1C2=O,T/C,"dose: 100.0 mg/kg/injection, schedule: Q01DX001 (ip), vehicle: saline with Tween-80",104 % of control
same,T/C,"dose: 200.0 mg/kg/injection, schedule: Q01DX001 (ip), vehicle: saline with Tween-80",104 % of control
same,T/C,"dose: 400.0 mg/kg/injection, schedule: Q01DX001 (ip), vehicle: saline with Tween-80",90 % of control
C=CC(c1ccccc1)C(O)(Cc1ccccc1)Cc1ccccc1 (centres undefined),T/C,"dose: 12.5 mg/kg/injection, schedule: Q01DX009 (ip), vehicle: DMSO",116 % of control
same,T/C,"dose: 50.0 mg/kg/injection, schedule: Q01DX009 (ip), vehicle: DMSO",100 % of control
